Measured values published in patent US4557871A, “Novel styrene derivatives of the general formula” (Taisho Pharmaceutical Co., Ltd., priority 1983, dated 1985).
Like-named read-outs stand apart in the source and are kept apart here.

Key:
[1] = system: edema in left hind paw; assay: Carrageenin-induced hind paw edema in rats, test compound orally 1 hour before (Winter's method), anti-inflammatory activity; type: in vivo, Male Wistar rats; conditions: paw volume 3 hours after carrageenin; for inhibition at 6 mg/kg: Rattus norvegicus, po
Protocol: Anti-inflammatory activity was evaluated by the Winter's method [Journal of Pharmacology and Experimental Therapeutics, volume 141, page 369(1963)]. Male Wistar rats (group of 6 animals) were administered orally the test compounds (dose: 6 mg/kg) one hour before inducing the edema in left hind paw with 0.1 ml of a 1% carrageenin-saline suspension. Volumes of the hind paws were determined with a volume meter 3 hours after the injection of carrageenin. Indomethacin (Control 1) and 4-vinylphenylacetic acid (Control 2) were used as controls.

[2] = system: edema in left hind paw; assay: Duration of inhibition of carrageenin-induced hind paw edema, test compound orally 1, 24 or 48 hours before inducing the edema; type: in vivo, Male Wistar rats; conditions: Rattus norvegicus; for inhibition at 1.5 mg/kg: dose 1.5 mg/kg oral; for inhibition at 3 mg/kg: po; for inhibition at 6 mg/kg: dose 6 mg/kg oral; for inhibition at 30 mg/kg: dose 30 mg/kg oral
Protocol: Anti-inflammatory activity was evaluated by the Winter's method [Journal of Pharmacology and Experimental Therapeutics, volume 141, page 369(1963)]. […] Volumes of the hind paws were determined with a volume meter 3 hours after the injection of carrageenin. Indomethacin (Control 1) and 4-vinylphenylacetic acid (Control 2) were used as controls.
Following a procedure similar to that of Test example 1, the test compounds were administered orally to the rats 1, 24 or 48 hours before inducing the edema, and there was obtained a result shown in Table 2.

[3] = 6 mg/kg oral, one hour before carrageenin
[4] = 1 hr before inducing edema, read-out: Inhibition of edema, 1 hr
[5] = 24 hrs before inducing edema, read-out: Inhibition of edema, 24 hrs
[6] = 48 hrs before inducing edema, read-out: Inhibition of edema, 48 hrs
[7] = 6 mg/kg oral, one hour before carrageenin, read-out: Inhibition of edema
[8] = read-out: Inhibition of edema, 6 mg/kg oral, one hour before carrageenin

| Compound | inhibition at 6 mg/kg [1, 7] | other results |
| --- | --- | --- |
| CC(C(=O)O)c1ccc(C=C(Cl)Cl)cc1 (centres unmarked) [ST-1, 2-[4-(2,2-dichlorovinyl)phenyl]propionic acid] | – | Inhibition of edema [1, 3]: 66.1%; inhibition at 1.5 mg/kg [2, 4]: 42.6%; inhibition at 1.5 mg/kg [2, 5]: 31.1%; inhibition at 1.5 mg/kg [2, 6]: 25.3% |
| CC(C(=O)Nc1ccc(F)cc1)c1ccc(C=C(Cl)Cl)cc1 (centres unmarked) [ST-17, N-(4-Fluorophenyl)-2-[4-(2,2-dichlorovinyl)phenyl]propionamide] | 40% | – |
| CC(C(=O)NCC(=O)O)c1ccc(C=C(Cl)Cl)cc1 (centres unmarked) [ST-24, N-{2-[4-(2,2-Dichlorovinyl)phenyl]propionyl}glycine] | 30% | – |
| CCOC(=O)C(C)c1ccc(C=C(Cl)Cl)c(Cl)c1 (centres unmarked) [ST-56, Ethyl 2-[3-chloro-4-(2,2-dichlorovinyl)phenyl]propionate] | 39.4% | – |
| CC(C(=O)OC1CCCCC1)c1ccc(C=C(Cl)Cl)cc1 (centres unmarked) [ST-61, Cyclohexyl 2-[4-(2,2-dichlorovinyl)phenyl]propionate] | 43.7% | – |
| CC(C(=O)NO)c1ccc(C=C(Cl)Cl)cc1 (centres unmarked) [ST-34, 2-[4-(2,2-dichlorovinyl)phenyl]propionylhydroxamic acid] | 32.5% | – |
| CN1C(C(=O)Nc2ccccn2)=C(O)c2ccccc2S1(=O)=O [Control 3, piroxicam] | – | inhibition at 1.5 mg/kg [2, 4]: 48.6%; inhibition at 1.5 mg/kg [2, 5]: 13.3%; inhibition at 1.5 mg/kg [2, 6]: 2.1% |
| COc1ccc2c(c1)c(CC(=O)O)c(C)n2C(=O)c1ccc(Cl)cc1 [Control 1, Indomethacin] | – | Inhibition of edema [1, 3]: 59.3%; inhibition at 6 mg/kg [1, 8]: 68.2%; inhibition at 3 mg/kg ([2]; read-out: Inhibition of edema, 1 hr): 30.4%; inhibition at 3 mg/kg ([2]; read-out: Inhibition of edema, 24 hrs): 8.1%; inhibition at 3 mg/kg ([2]; read-out: Inhibition of edema, 48 hrs): 0.8% |
| O=C(O)Cc1ccc(C=C(Cl)Cl)cc1 [ST-2, 4-(2,2-Dichlorovinyl)phenylacetic acid] | 63.9% | – |
| CC(C(=O)OCCO)c1ccc(C=C(Cl)Cl)cc1 (centres unmarked) [ST-59, 2-Hydroxyethyl 2-[4-(2,2-dichlorovinyl)phenyl]propionate] | 57.3% | – |
| CCC(=O)OCOC(=O)C(C)c1ccc(C=C(Cl)Cl)cc1 (centres unmarked) [ST-46, Propionyloxymethyl 2-[4-(2,2-dichlorovinyl)phenyl]propionate] | 32.2% | – |
| CC(C(=O)Nc1ccc(Cl)cc1)c1ccc(C=C(Cl)Cl)cc1 (centres unmarked) [ST-16, N-(4-Chlorophenyl)-2-[4-(2,2-dichlorovinyl)phenyl]propionamide] | 43.1% | – |
| CC(CO)c1ccc(C=C(Cl)Cl)cc1 (centres unmarked) [ST-10, 2-[4-(2,2-dichlorovinyl)phenyl]propanol] | 62.4% | – |
| CC(C)=CCCC(C)=CCCC(C)=CCOC(=O)C(C)c1ccc(C=C(Cl)Cl)cc1 (centres unmarked) [ST-60, Farnesyl 2-[4-(2,2-dichlorovinyl)phenyl]propionate] | 50.8% | – |
| CC(C(=O)OCc1ccccn1)c1ccc(C=C(Cl)Cl)cc1 (centres unmarked) [ST-44, 2-Pyridylmethyl 2-[4-(2,2-dichlorovinyl)phenyl]propionate] | 59.8% | – |
| CC(C(=O)Nc1ccccn1)c1ccc(C=C(Cl)Cl)cc1 (centres unmarked) [ST-22, N-(2-Pyridyl)-2-[4-(2,2-dichlorovinyl)phenyl]propionamide] | 35.5% | – |
| CCOC(=O)C(C)c1ccc(C=C(Cl)Cl)c(F)c1 (centres unmarked) [ST-55, ethyl 2-[4-(2,2-dichlorovinyl)-3-fluorophenyl]propionate] | 38.2% | – |
| CCC(=O)OC(C)OC(=O)C(C)c1ccc(C=C(Cl)Cl)cc1 (centres unmarked) [ST-47, 1-(Propionyloxy)ethyl 2-[4-(2,2-dichlorovinyl)phenyl]propionate] | 49.9% | – |
| CC(C(=O)O)c1ccc(C=C(Cl)Cl)cc1 (centres unmarked) [ST-35, sodium 2-[4-(2,2-dichlorovinyl)phenyl]propionate] | – | inhibition at 6 mg/kg [1, 8]: 46% |
| CC(C(=O)O)c1ccc(C=C(Cl)Cl)c(Cl)c1 (centres unmarked) [ST-9, 2-[3-Chloro-4-(2,2-dichlorovinyl)phenyl]propionic acid] | 58% | – |
| CCNC(=O)C(C)c1ccc(C=C(Cl)Cl)cc1 (centres unmarked) [ST-25, N-Ethyl-2-[4-(2,2-dichlorovinyl)phenyl]propionamide] | 37.1% | – |
| CC(C(=O)O)c1ccc(C=C(Cl)Cl)cc1 (centres unmarked) [ST-37, Aluminum 2-[4-(2,2-dichlorovinyl)phenyl]propionate] | – | Inhibition of edema [1, 3]: 63.1% |
| CC(C(=O)O)c1ccc(C=C(F)F)cc1 (centres unmarked) [ST-7, 2-[4-(2,2-difluorovinyl)phenyl]propionic acid] | 48.4% | – |

| Compound | inhibition at 6 mg/kg [1, 7] | other results |
| --- | --- | --- |
| CC(C(=O)Nc1ccc(C(=O)O)cc1)c1ccc(C=C(Cl)Cl)cc1 (centres unmarked) [ST-20, 4-{2-[4-(2,2-Dichlorovinyl)phenyl]propionylamino}benzoic acid] | 47% | – |
| CC(C)=Cc1ccc(C(C)C(=O)O)cc1 (centres unmarked) [Control 4, 2-[4-(2,2-dimethylvinyl)phenyl]propionic acid] | – | inhibition at 6 mg/kg [2, 4]: 59.3%; inhibition at 6 mg/kg [2, 5]: -8.5%; inhibition at 6 mg/kg [2, 6]: 3.7% |
| CC(C)=CCC/C(C)=C/COC(=O)C(C)c1ccc(C=C(Cl)Cl)c(Cl)c1 (centres unmarked) [ST-62, Geranyl 2-[3-chloro-4-(2,2-dichlorovinyl)phenyl]propionate] | 43.2% | – |
| CC(C(=O)O)c1ccc(C=C(Cl)Cl)c(F)c1 (centres unmarked) [ST-8, 2-[4-(2,2-dichlorovinyl)-3-fluorophenyl]propionic acid] | 64.8% | – |
| C=Cc1ccc(CC(=O)O)cc1 [Control 2, 4-vinylphenylacetic acid] | 15.7% | inhibition at 30 mg/kg [2, 4]: 40.2%; inhibition at 30 mg/kg [2, 5]: 1.3%; inhibition at 30 mg/kg [2, 6]: -3.5% |
| CC(C(=O)O)c1cccc(C=C(Cl)Cl)c1 (centres unmarked) [ST-4, 2-[3-(2,2-Dichlorovinyl)phenyl]propionic acid] | 32% | – |
| O=C(O)Cc1cccc(C=C(Cl)Cl)c1 [ST-3, 3-(2,2-Dichlorovinyl)phenylacetic acid] | 31.9% | – |
| COCOC(=O)C(C)c1ccc(C=C(Cl)Cl)cc1 (centres unmarked) [ST-43, Methoxymethyl 2-[4-(2,2-dichlorovinyl)phenyl]propionate] | 37.1% | – |
| CC(C)CCOC(=O)C(C)c1ccc(C=C(Cl)Cl)cc1 (centres unmarked) [ST-42, Isopentyl 2-[4-(2,2-dichlorovinyl)phenyl]propionate] | 60.4% | – |
| CC(C(N)=O)c1ccc(C=C(Cl)Cl)cc1 (centres unmarked) [ST-11, 2-[4-(2,2-dichlorovinyl)phenyl]propionamide] | 26.5% | – |
| CCCCCCCCCCCCCCCC(=O)OC(C)OC(=O)C(C)c1ccc(C=C(Cl)Cl)cc1 (centres unmarked) [ST-48, 1-(Palmitoyloxy)ethyl 2-[4-(2,2-dichlorovinyl)phenyl]propionate] | 32.7% | – |
| CC(C(=O)O)c1ccc(C=C(Cl)Cl)cc1 (centres unmarked) [ST-39, 2-Pyridylammonium 2-[4-(2,2-dichlorovinyl)phenyl]propionate] | – | Inhibition of edema [1, 3]: 51.4% |
| CCOC(=O)C(C)c1ccc(C=C(Cl)Cl)cc1 (centres unmarked) [ST-5, ethyl 2-[4-(2,2-dichlorovinyl)phenyl]propionate] | 46.5% | – |
| CC(C(=O)OC1OC(=O)c2ccccc21)c1ccc(C=C(Cl)Cl)cc1 (centres unmarked) [ST-49, 2-Phthalidyl 2-[4-(2,2-dichlorovinyl)phenyl]propionate] | 53.3% | – |
| CC(C)=CCC/C(C)=C/COC(=O)C(C)c1ccc(C=C(Cl)Cl)cc1 (centres unmarked) [ST-58, geranyl 2-[4-(2,2-dichlorovinyl)phenyl]propionate] | 39% | – |
| CC(=O)OC(C)OC(=O)C(C)c1ccc(C=C(Cl)Cl)cc1 (centres unmarked) [ST-45, 1-(Acetoxy)ethyl 2-[4-(2,2-dichlorovinyl)phenyl]propionate] | 44.8% | – |
| Cc1ccc(NC(=O)C(C)c2ccc(C=C(Cl)Cl)cc2)cc1 (centres unmarked) [ST-14, N-(4-Methylphenyl)-2-[4-(2,2-dichlorovinyl)phenyl]propionamide] | 33.6% | – |
| CC(C)=CCOC(=O)C(C)c1ccc(C=C(Cl)Cl)c(F)c1 (centres unmarked) [ST-50, Prenyl 2-[4-(2,2-dichlorovinyl)-3-fluorophenyl]propionate] | 61.4% | – |
| CCOC(=O)CNC(=O)C(C)c1ccc(C=C(Cl)Cl)cc1 (centres unmarked) [ST-23, N-{2-[4-(2,2-Dichlorovinyl)phenyl]propionyl}glycine ethyl ester] | 35.5% | – |
| CC(C(=O)O)c1ccc(C=C(Cl)Cl)cc1 (centres unmarked) [ST-36, calcium 2-[4-(2,2-dichlorovinyl)phenyl]propionate] | – | Inhibition of edema [1, 3]: 43.0% |
| CC(C)=CCOC(=O)C(C)c1ccc(C=C(Cl)Cl)cc1 (centres unmarked) [ST-41, prenyl 2-[4-(2,2-dichlorovinyl)phenyl]propionate] | 48.8% | – |
| CC(C(=O)O)c1ccc(C=C(Cl)Cl)cc1 (centres unmarked) [ST-38, morpholinium 2-[4-(2,2-dichlorovinyl)phenyl]propionate] | – | Inhibition of edema [1, 3]: 35.6% |
